Data as given in PMC11173382, “In Vitro Investigations into the Potential Drug Interactions of Pseudoginsenoside DQ Mediated by Cytochrome P450 and Human Drug Transporters” (Molecules, 2024).

Target: T1, hOAT1 (Homo sapiens, UniProt Q4U2R8)
T1 sequence (Q4U2R8 1-563): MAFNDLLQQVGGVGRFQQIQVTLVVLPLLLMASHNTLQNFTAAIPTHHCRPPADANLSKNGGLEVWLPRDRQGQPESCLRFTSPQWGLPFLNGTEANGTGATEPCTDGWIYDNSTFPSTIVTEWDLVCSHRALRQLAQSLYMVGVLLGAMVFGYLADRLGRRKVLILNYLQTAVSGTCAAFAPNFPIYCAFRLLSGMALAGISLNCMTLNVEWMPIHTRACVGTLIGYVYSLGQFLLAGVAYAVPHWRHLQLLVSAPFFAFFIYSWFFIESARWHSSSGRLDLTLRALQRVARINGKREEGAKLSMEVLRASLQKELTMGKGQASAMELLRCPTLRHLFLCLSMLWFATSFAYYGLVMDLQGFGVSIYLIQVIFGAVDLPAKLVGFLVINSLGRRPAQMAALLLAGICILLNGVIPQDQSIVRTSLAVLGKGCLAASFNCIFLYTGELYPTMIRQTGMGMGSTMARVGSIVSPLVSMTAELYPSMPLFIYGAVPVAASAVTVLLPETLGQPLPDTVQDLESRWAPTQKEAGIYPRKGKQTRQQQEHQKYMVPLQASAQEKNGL
Experiment: Substrates uptake assay, MDCKII-OAT1 cells (14C-PAH)
Format: in vitro ADME
Source text: Drug transporters mediate the cellular uptake and efflux of their substrates. Therefore, cell lines overexpressing a drug transporter can be utilized to investigate inhibitors of the transporter by assessing changes in substrate uptake. For each drug transporter, we selected a well-characterized inhibitor as the positive control. Radiolabeled substrates were used to indicate the decrease in transport efficiency when the drug transporters were inhibited by PDQ or the control inhibitors.
The concentrations of the control drugs and the substrates were stated in the assay details. Working solutions of the control inhibitors, the radiolabeled substrates, and each dose of PDQ were prepared at 200 times (200×) more concentrated solutions with DMSO for further dilution.
Transporter-overexpressed cell lines. Human organic anion transporter-overexpressed cell lines MDCKII-OAT1 and S2-OAT3, human organic anion transport polypeptide-overexpressed cell lines HEK293A-OATP1B1 and HEK293A-OATP1B3, human organic cation transporter 2-overexpressed cell line S2-OCT2, and human multi-drug resistance protein MDR1 (or P-gp)-overexpressed cell line MDCKII-MDR1 were gifts from Japan Fuji Biomedical Co., Ltd. (Fuji, Shizuoka Prefecture, Japan). Breast cancer resistance protein-overexpressed vesicles (sf9-BCRP vesicle) were purchased from GenoMembrane Co., Ltd. (Yokohama, Kanagawa, Japan).
Substrates uptake assay. In this assay, we studied the inhibition of PDQ against transporters OAT1, OAT3, OCT2, OATP1B1 and OATP1B3 with MDCKII-OAT1, S2-OAT3, S2-OCT2, HEK293A-OATP1B1and HEK293A-OATP1B3 cells, respectively. The radiolabeled substrates for OAT1, OAT3, OATP1B1, OATP1B3 and OCT2 were […], respectively (Table 5). Probenecid ([…]) was the positive control inhibitor of OAT1 and OAT3, while rifampicin ([…]) served as the control drug of OATP1B1 and OATP1B3. For OCT2, we used […] cimetidine to compare with the inhibitory effect of PDQ. Two times (2×) more concentrated working solutions of the drugs and the substrate were prepared with Dulbecco’s phosphate-buffered saline (DPBS, Gibco, Grand Island, NY, USA.). Then, an equal volume of 2× drug solution and 2× radiolabeled substrate solution were mixed as the working mix. All reagents were pre-warmed to 37 °C.
The cells were digested with 0.05% trypsin/EDTA. The density of the single-cell suspension was adjusted to 2.0 × 10^5 cells/mL for S2 cells and to 1.5 × 10^5 cells/mL for MDCK II and HEK293A cells. The cell suspension was then added to the reservoirs of the 24-well plate for culture until full confluency. The medium in the wells was removed, and the wells were washed with DPBS. Then, the plate was incubated for 10 min with pre-warmed DPBS in the wells. After removing DPBS, […] of working mix was added to each well to initiate the substrate uptake process. The reaction time was 5 min for S2-OCT2 cells, while the other four types of cells were incubated with the reaction mix for 2 min. Cold DPBS was used to terminate the substrate transportation. To each well, […] NaOH ([…]) was added to lyse the cells. Then, […] cell lysate was transferred to the counting vials, and 3 mL scintillation cocktail (Aquasol-2, PerkinElmer, Waltham, MA, USA) was added. […] Each sample was replicated three times (N = 3).
In = [100 × (U − U0)/(Uc − U0)]%(3)
The results were expressed as mean ± standard deviation (SD) and analyzed with GraphPad Prism 8.0 software (CA, USA). The IC50 of PDQ was curve-fitted with the FORECAST function.

Compound: CC(C)(O)[C@@H]1CC[C@@](C)([C@H]2CC[C@]3(C)[C@@H]2[C@H](O)C[C@@H]2[C@@]4(C)CC[C@H](O)C(C)(C)[C@@H]4CC[C@]23C)O1 [PDQ, (20S,24S)-dammar-20,24-epoxy-3β, 12β, 25-triol]
- IC50 (MDCKII-OAT1, 14C-PAH 5 µM, 2 min): > 30 µM
- DPM (14C-PAH uptake by OAT1) (inhibitor 0.1 μM): 540.3±39.2 DPM
- DPM (14C-PAH uptake by OAT1) (inhibitor 0.3 μM): 566.0±44.8 DPM
- DPM (14C-PAH uptake by OAT1) (inhibitor 1 μM): 547.7±68.8 DPM
- DPM (14C-PAH uptake by OAT1) (inhibitor 3 μM): 496.3±38.1 DPM
- DPM (14C-PAH uptake by OAT1) (inhibitor 10 μM): 558.7±19.7 DPM
- DPM (14C-PAH uptake by OAT1) (inhibitor 30 μM): 460.3±5.7 DPM
